Measurements reported in patent publication US20130158070A1, “CONJUGATES OF POLYUNSATURATED FATTY ACIDS AND AMINE-CONTAINING COMPOUNDS AND USES THEREOF” (priority 2010, published 2013).

How the values were obtained:
DNBS-induced colitis = experiment: DNBS-induced experimental colitis in mice, oral administration; format: in vivo; conditions: day four after DNBS, MWL001 50 mg/kg oral daily
Description: In this study, the effect of MWL001 on pro-inflammatory mediators in DNBS-induced experimental colitis in mice was evaluated. In particular it was observed that there was no expression of TNF-α, CD4, TGF-13, CD25 in the colon tissue from sham-treated mice. MWL001 and DEX were administered orally and daily starting at six hours after the DNBS challenge.
Colitis was induced with a very low dose of 2,4-dinitrobenzene sulfonic acid (DNBS) (4 mg per mouse) by using a modification of the method first described in mice. […] Mice were anesthetized by Enflurane. DNBS (4 mg in 100 μl of 50% ethanol) was injected into the rectum through a catheter inserted 4.5 cm proximally to the anus. The carrier alone (100 μl of 50% ethanol) was administered in control experiments. Thereafter, the animals were kept for 15 minutes in a Trendelenburg position to avoid reflux. […] On Day four, the animals were weighed and anaesthetized with chloral hydrate, and their abdomen was opened by a midline incision. The colon was removed, freed from surrounding tissues, opened along the antimesenteric border and processed for histology.
TNF-α and IL-6 levels were evaluated and colon tissues collected at four days after DNBS administration. Briefly, portions of terminal colon were homogenized as previously described in phosphate-buffered saline (PBS, ICN Biomedicals, Milan, Italy) containing two mmol/L of phenyl-methyl sulfonyl fluoride (PMSF, Sigma Chemical Co.). The assay was carried out using a colorimetric, commercial kit (R&D system Milan, Italy) according to the manufacturer instructions. All cytokines determinations were performed in duplicate serial dilutions.
At four days after DNBS administration, colon tissues were fixed in 10% (w/v) PBS-buffered formaldehyde and 7 μm sections were prepared from paraffin embedded tissues. After deparaffinization, endogenous peroxidase was quenched with 0.3% (v/v) hydrogen peroxide in 60% (v/v) methanol for 30 min. The sections were permeabilized with 0.1% (w/v) Triton X-100 in PBS for 20 min. Non-specific adsorption was minimized by incubating the section in 2% (v/v) normal goat serum in PBS for 20 min. Endogenous biotin or avidin binding sites were blocked by sequential incubation for 15 min with biotin and avidin (Vector Laboratories, Burlingame, Calif.), respectively. Sections were incubated overnight with: 1) purified polyclonal antibody directed towards CD4 (Santa Cruz Biotechnology, 1:500 in PBS, v/v) or 2) with purified anti-CD25 (Santa Cruz Biotecnology 1:500 in PBS, w/v) or 3) with anti- TNF-α polyclonal antibody (Santa Cruz Biotechnology, N-19:sc-1350, 1:500 in PBS, v/v) or 4) with anti-TGF-β polyclonal antibody (Santa Cruz, 1:500 in PBS, v/v).
Sections were washed with PBS, and incubated with a secondary antibody. Specific labelling was detected with a biotin-conjugated goat anti-rabbit IgG and avidin-biotin peroxidase complex (Vector Laboratories, Burlingame, Calif.).

[1] = system: oxazolone-induced allergic dermatitis; experiment: Murine oxazolone-induced allergic dermatitis; format: in vivo, mice
From the text: An allergic form of contact dermatitis can be induced in mice by repeated epicutaneous application of the chemical sensitizer oxazolone. This leads to local augmented thickness and weight increase of the skin area where the rechallenge was applied; from the histological point of view, oxazolone-induced dermatitis is characterized by severe mononuclear cell infiltration of the dermis with in situ production of the type 1 proinflammatory cytokines TNF-alpha, IL-1alpha and IFN-gamma. These well-defined mechanistic pathways of inflammatory skin damage make oxazolone-dermatitis a useful in vivo tool for pathogenic studies and a pharmacodynamic parameter to screen drugs of potential utility in counteracting type 1 cytokine dependent cutaneous immunoinflammatory responses such as those found in some forms of bullous disorders, cutaneous vasculitis and psoriasis.
The efficacy of MWL001 in the treatment of Murine oxazolone-induced allergic dermatitis was evaluated. MWL001 and DEX were administered one hour after the second challenge with oxazolone.
The mice were sensitized on day 0 by a single application of 10 ∞l of 2% oxazolone (Sigma Chimica, Milan, Italy) in ethanol to the inner and outer surface of the left ear. The disease was elicited by local rechallenge on day 7 with 15% oxazolone. The right ear was treated with the vehicle of oxazolone (acetone). Eighteen hours after […] the mice are sacrificed under ether anesthesia and both the right and left ears were excised.
Inflammation was assessed as the percentage increase in ear thickness and/or ear weight in the treated left ear vs. the vehicle-treated right ear. Ear thickness was measured with a digital calliper. The extent of the inflammation was quantified as follows: ear swelling (%)=100×(a−b)/b, where a is thickness/weight of the left (treated) ear and b is the thickness/weight of the right (untreated) ear.
Ear tissue samples were fixed with 4% formaldehyde in phosphate-buffered saline (PBS) and embedded in paraffin. Thereafter, 6-μm sections were deparaffinized with xylene, stained with hematoxylin-eosin and observed with a Zeiss microscope (Jena, Germany).

[2] = system: collagen induced arthritis; experiment: Collagen induced arthritis (CIA), arthritis score, paw thickness, body weight; format: in vivo, DBA/1J mice
Description: In a different study, 34 male 8-10 weeks old DBA/1J mice were used. Animals were fed ad libitum a commercial rodent diet (Teklad Certified Global 18% Protein Diet cat #: 106S8216). Animals had free access to acidified drinking water (pH between 2.5 and 3.0) obtained from the municipality supply.
The effect of MWL-002 (conjugate of DHA and taurine) was tested and compared to that of Ibuprofen. Cremophore EL was used as a vehicle.
On day 0, each mouse was anesthetized by inhalation of 3% isofluorane and injected intradermally at the base of the tail with 0.1 ml of emulsion containing 100 μg collagen, using a 1-ml glass syringe with a 26-guade needle. Booster injection was performed at day 15 to the same injection site.
The tested materials were administered 3 times a week, via IP for a total of 12 administrations starting on day 1.
Observations for clinical score were performed twice weekly until study termination.
The severity of arthritis was scored based on the level of inflammation in each of the four paws and recorded as one of five grades according to the following:
Hind paw thickness (edema) was measured by digital caliper once a week until Day 14 and thereafter twice weekly and prior to study termination. Two cross sectional areas were marked, one on the paw and the other at the ankle (tarsal joint). Two measurements were made on each section, perpendicular to each other. The results obtained were calculated as the average areas of both hind limbs per animal.
Body weight was measured prior to dosing, during the study twice a week and prior to study termination.

[3] = eighteen hours after sensitization, given one hour after second oxazolone challenge

CCC=CCC=CCC=CCC=CCC=CCC=CCCC(=O)N1CC(O)CC1C(=O)O (centres unmarked) [MWL001]
IL-6 colon levels (DNBS-induced colitis; colorimetric kit): significant reduction | TNF-α colon levels (DNBS-induced colitis; colorimetric kit): significant reduction | expression of CD4 in colon tissue (DNBS-induced colitis; immunostaining): significantly reduced | expression of CD25 in colon tissue (DNBS-induced colitis; immunostaining): significantly reduced | expression of TGF-β in colon tissue (DNBS-induced colitis; immunostaining): significantly reduced | expression of TNF-α in colon tissue (DNBS-induced colitis; immunostaining): significantly reduced | ear thickness [1, 3]: decreased ear thickness | ear weight [1, 3]: decreased ear weight | histology: ear thickness and inflammatory cells in epidermis and dermis ([1]; hematoxylin and eosin stained sections): markedly reduced

CC/C=C\C/C=C\C/C=C\C/C=C\C/C=C\C/C=C\CCC(=O)NCCS(=O)(=O)O [MWL002, N-docosa-4,7,10,13,16,19-hexaenoyl-taurine]
day from which arthritis score (AS) increases ([2]; 50 mg/kg IP, 3 times a week, 12 administrations): 57 days | CIA development ([2]; 50 mg/kg IP, overall conclusion): inhibits CIA development robustly | body weight ([2]; 50 mg/kg IP, from day 37, in comparison to the other 3 groups): increase the body weight in a major percent | arthritis thickness index (ATI) increase ([2]; from day 0 to day 70, 50 mg/kg IP, groups 1M DHA-Tau, 2M DHA, 4M Ibuprofen): 150% | ATI course ([2]; from day 43 until end of study, FIG. 8B): almost no changes
